Results taken from patent publication US20260216108A1, “PHARMACEUTICAL COMPOSITION CONTAINING A MITOPHAGY INDUCER” (HANGZHOU PHECDAMED CO., LTD., priority 2023, published 2026).

Assay: Compatibility test of API and auxiliary materials: relevant substances (impurities) by HPLC
Format: physicochemical
Conditions: opened
Description: 4. Using HPLC method to detect the content of the sample and relevant substances.
The parameters of the HPLC method for the detection of the content and relevant substances are detailed in Table 2 below.
Placing the samples under experimental conditions of high temperature (60° C.), high humidity (92.5% RH), acceleration (40° C./75% RH) and illumination (visible light 5500 Lux±500 Lux, near ultraviolet light 85 μw/cm2), […] Submitting the samples for relevant indicator testing (test items include appearance, hygroscopic weight gain, content and relevant substances), and comparing the test results with the control samples (raw material).

For `O=C(O)C[S+]([O-])c1cc(NS(=O)(=O)c2ccc(Br)cc2)c2ccccc2c1O` (stereo not drawn) [API], the “% Impurities RRT0.37” value (40° C./75% RH, 0 d) was <0.05%, the “% Impurities RRT0.46” value (40° C./75% RH, 0 d) was <0.05% and the “% Impurities RRT0.89” value (40° C./75% RH, 0 d) was 0.08%. For the same molecule, the “% Impurities RRT1.10” value (40° C./75% RH, 0 d) was <0.05%, the “% Impurities RRT1.16” value (40° C./75% RH, 0 d) was 0.88% and the “% Impurities RRT1.20” value (40° C./75% RH, 0 d) was 0.09%. The “% Impurities RRT1.24” value (40° C./75% RH, 0 d) was <0.05%, the “% Impurities RRT1.29” value (40° C./75% RH, 0 d) was 0.14% and the “% Impurities RRT1.33” value (40° C./75% RH, 0 d) was 0.10%. The “% Impurities RRT1.37” value (40° C./75% RH, 0 d) was 0.07%, the “% Impurities RRT1.41” value (40° C./75% RH, 0 d) was <0.05% and the “% Impurities RRT1.43” value (40° C./75% RH, 0 d) was <0.05%. The “% Impurities RRT1.73” value (40° C./75% RH, 0 d) was <0.05%, the “% Impurities RRT1.74” value (40° C./75% RH, 0 d) was 0.05% and the “% Impurities Total” value (40° C./75% RH, 0 d) was 1.41%. For the same molecule, the “% Impurities RRT0.37” value (40° C./75% RH, 10 d) was <0.05%, the “% Impurities RRT0.46” value (40° C./75% RH, 10 d) was 0.11% and the “% Impurities RRT0.89” value (40° C./75% RH, 10 d) was 0.06%. For the same molecule, the “% Impurities RRT1.10” value (40° C./75% RH, 10 d) was <0.05%, the “% Impurities RRT1.16” value (40° C./75% RH, 10 d) was 1.23% and the “% Impurities RRT1.20” value (40° C./75% RH, 10 d) was 0.06%. For the same molecule, the “% Impurities RRT1.24” value (40° C./75% RH, 10 d) was <0.05%, the “% Impurities RRT1.29” value (40° C./75% RH, 10 d) was 0.08% and the “% Impurities RRT1.33” value (40° C./75% RH, 10 d) was 0.07%. For the same molecule, the “% Impurities RRT1.37” value (40° C./75% RH, 10 d) was 0.05%, the “% Impurities RRT1.41” value (40° C./75% RH, 10 d) was 0.09% and the “% Impurities RRT1.43” value (40° C./75% RH, 10 d) was 0.07%. For the same molecule, the “% Impurities RRT1.54” value (40° C./75% RH, 10 d) was 0.06%, the “% Impurities RRT1.63” value (40° C./75% RH, 10 d) was 0.21% and the “% Impurities RRT1.65/1.70” value (40° C./75% RH, 10 d) was <0.05%. The “% Impurities RRT1.73” value (40° C./75% RH, 10 d) was 0.59%, the “% Impurities RRT1.74” value (40° C./75% RH, 10 d) was 0.06% and the “% Impurities Total” value (40° C./75% RH, 10 d) was 2.74%. For the same molecule, the “% Impurities RRT0.46” value (40° C./75% RH, 30 d) was 0.20%, the “% Impurities RRT0.89” value (40° C./75% RH, 30 d) was 0.08% and the “% Impurities RRT1.10” value (40° C./75% RH, 30 d) was <0.05%. For the same molecule, the “% Impurities RRT1.16” value (40° C./75% RH, 30 d) was 1.18%, the “% Impurities RRT1.20” value (40° C./75% RH, 30 d) was 0.05% and the “% Impurities RRT1.24” value (40° C./75% RH, 30 d) was <0.05%. For the same molecule, the “% Impurities RRT1.29” value (40° C./75% RH, 30 d) was 0.14%, the “% Impurities RRT1.33” value (40° C./75% RH, 30 d) was 0.07% and the “% Impurities RRT1.37” value (40° C./75% RH, 30 d) was 0.08%. For the same molecule, the “% Impurities RRT1.41” value (40° C./75% RH, 30 d) was 0.08%, the “% Impurities RRT1.43” value (40° C./75% RH, 30 d) was 0.07% and the “% Impurities RRT1.54” value (40° C./75% RH, 30 d) was <0.05%. For the same molecule, the “% Impurities RRT1.63” value (40° C./75% RH, 30 d) was 0.24%, the “% Impurities RRT1.65/1.70” value (40° C./75% RH, 30 d) was <0.05% and the “% Impurities RRT1.73” value (40° C./75% RH, 30 d) was 0.74%. The “% Impurities RRT1.74” value (40° C./75% RH, 30 d) was 0.08%, the “% Impurities Total” value (40° C./75% RH, 30 d) was 3.01% and the “% Impurities RRT0.46” value (60° C., 0 d) was <0.05%. For the same molecule, the “% Impurities RRT0.89” value (60° C., 0 d) was 0.08%, the “% Impurities RRT1.16” value (60° C., 0 d) was 0.88% and the “% Impurities RRT1.20” value (60° C., 0 d) was 0.09%. For the same molecule, the “% Impurities RRT1.29” value (60° C., 0 d) was 0.14%, the “% Impurities RRT1.33” value (60° C., 0 d) was 0.10% and the “% Impurities RRT1.37” value (60° C., 0 d) was 0.07%. For the same molecule, the “% Impurities RRT1.41” value (60° C., 0 d) was <0.05%, the “% Impurities RRT1.73” value (60° C., 0 d) was <0.05% and the “% Impurities RRT1.74” value (60° C., 0 d) was 0.05%. The “% Impurities Total” value (60° C., 0 d) was 1.41%, the “% Impurities RRT0.46” value (60° C., 10 d) was <0.05% and the “% Impurities RRT0.89” value (60° C., 10 d) was 0.08%. The “% Impurities RRT1.16” value (60° C., 10 d) was 0.87%, the “% Impurities RRT1.20” value (60° C., 10 d) was 0.07% and the “% Impurities RRT1.29” value (60° C., 10 d) was 0.17%. The “% Impurities RRT1.33” value (60° C., 10 d) was 0.08%, the “% Impurities RRT1.37” value (60° C., 10 d) was 0.06% and the “% Impurities RRT1.41” value (60° C., 10 d) was <0.05%. For the same molecule, the “% Impurities RRT1.73” value (60° C., 10 d) was <0.05%, the “% Impurities RRT1.74” value (60° C., 10 d) was 0.07% and the “% Impurities Total” value (60° C., 10 d) was 1.40%. The “% Impurities RRT0.46” value (60° C., 30 d) was <0.05%, the “% Impurities RRT0.89” value (60° C., 30 d) was 0.07% and the “% Impurities RRT1.16” value (60° C., 30 d) was 0.87%. The “% Impurities RRT1.20” value (60° C., 30 d) was 0.06%, the “% Impurities RRT1.29” value (60° C., 30 d) was 0.18% and the “% Impurities RRT1.33” value (60° C., 30 d) was 0.07%. The “% Impurities RRT1.37” value (60° C., 30 d) was 0.06%, the “% Impurities RRT1.41” value (60° C., 30 d) was <0.05% and the “% Impurities RRT1.73” value (60° C., 30 d) was <0.05%. For the same molecule, the “% Impurities RRT1.74” value (60° C., 30 d) was 0.09%, the “% Impurities Total” value (60° C., 30 d) was 1.40% and the “% Impurities RRT0.46” value (92.5% RH, 0 d) was <0.05%.
